Results: ChEMBL document CHEMBL1201862, “PubChem BioAssay data set” (2004)
Activity calls are given as the source filed them.

What was measured:
Assay type in all cases: functional
[1] = biological target: Cyclin-dependent kinase 2 (Homo sapiens, UniProt P24941);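 note: CDK2 measured as one member of a broad kinome profiling panel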
[2] = biological target: Cyclin-dependent kinase 5 (Homo sapiens, UniProt Q00535);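 note: CDK5 measured as one member of a kinase profiling panel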
[3] = biological target: Serine/threonine-protein kinase D2 (Homo sapiens, UniProt Q9BZL6);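 note: measured against PRKD2 as one member of a kinome-wide kinase profiling panel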
[4] = biological target: Megakaryocyte-associated tyrosine-protein kinase (Homo sapiens, UniProt P42679);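 note: affinity measured as one member of a kinase panel (Navigating the Kinome) against MATK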
[5] = biological target: Tyrosine-protein kinase Lyn (Homo sapiens, UniProt P07948);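 note: lyn as one member of a kinase panel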
[6] = biological target: Insulin-like growth factor 1 receptor (Homo sapiens, UniProt P08069); test: Navigating the Kinome. Panel member name: IGF1R
Misshapen-like kinase 1 = Misshapen-like kinase 1 (Homo sapiens, UniProt Q8N4C8);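 note: kinome panel screen with MINK as the panel member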
[7] = biological target: 5'-AMP-activated protein kinase catalytic subunit alpha-1 (Homo sapiens, UniProt Q13131)
[8] = biological target: Fibroblast growth factor receptor 3 (Homo sapiens, UniProt P22607)
[9] = biological target: ALK tyrosine kinase receptor (Homo sapiens, UniProt Q9UM73);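 note: ALK tested as one member of a kinase panel screen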
[10] = biological target: Dual specificity protein kinase CLK2 (Homo sapiens, UniProt P49760)
[11] = biological target: Receptor tyrosine-protein kinase erbB-4 (Homo sapiens, UniProt Q15303);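 note: ERBB4 member of a kinome-wide kinase profiling panel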
[12] = biological target: Serine/threonine-protein kinase TAO1 (Homo sapiens, UniProt Q7L7X3)
[13] = biological target: Ribosomal protein S6 kinase beta-1 (Homo sapiens, UniProt P23443);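 note: measured as one member of a kinome-wide profiling panel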
[14] = biological target: Protein kinase C zeta type (Homo sapiens, UniProt Q05513);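 note: measured as one member of a broad kinase profiling panel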
[15] = biological target: Maternal embryonic leucine zipper kinase (Homo sapiens, UniProt Q14680)
[16] = biological target: Serine/threonine-protein kinase pim-1 (Homo sapiens, UniProt P11309)
[17] = biological target: Glycogen synthase kinase-3 alpha (Homo sapiens, UniProt P49840);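 note: GSK3A result taken from a broad kinome-wide kinase panel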
[18] = biological target: Serine/threonine-protein kinase Nek2 (Homo sapiens, UniProt P51955)
[19] = biological target: STE20-like serine/threonine-protein kinase (Homo sapiens, UniProt Q9H2G2)
[20] = biological target: Serine/threonine-protein kinase MRCK alpha (Homo sapiens, UniProt Q5VT25)
[21] = biological target: Lymphokine-activated killer T-cell-originated protein kinase (Homo sapiens, UniProt Q96KB5);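 note: value comes from a kinase panel screen in which TOPK was one of the panel members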
Vero = test: viability of Vero cells under compound – cytotoxicity control for flavivirus capping enzyme inhibitors (AID 588742); settings: Chlorocebus sabaeus
[22] = biological target: T1, Replicative DNA helicase DnaB (Mycobacterium tuberculosis, UniProt P9WMR3); test: DnaB intein splicing inhibitors, dose response, biochemical, cell-free fluorescence (AID 449749)
T1 sequence (P9WMR3 whole entry): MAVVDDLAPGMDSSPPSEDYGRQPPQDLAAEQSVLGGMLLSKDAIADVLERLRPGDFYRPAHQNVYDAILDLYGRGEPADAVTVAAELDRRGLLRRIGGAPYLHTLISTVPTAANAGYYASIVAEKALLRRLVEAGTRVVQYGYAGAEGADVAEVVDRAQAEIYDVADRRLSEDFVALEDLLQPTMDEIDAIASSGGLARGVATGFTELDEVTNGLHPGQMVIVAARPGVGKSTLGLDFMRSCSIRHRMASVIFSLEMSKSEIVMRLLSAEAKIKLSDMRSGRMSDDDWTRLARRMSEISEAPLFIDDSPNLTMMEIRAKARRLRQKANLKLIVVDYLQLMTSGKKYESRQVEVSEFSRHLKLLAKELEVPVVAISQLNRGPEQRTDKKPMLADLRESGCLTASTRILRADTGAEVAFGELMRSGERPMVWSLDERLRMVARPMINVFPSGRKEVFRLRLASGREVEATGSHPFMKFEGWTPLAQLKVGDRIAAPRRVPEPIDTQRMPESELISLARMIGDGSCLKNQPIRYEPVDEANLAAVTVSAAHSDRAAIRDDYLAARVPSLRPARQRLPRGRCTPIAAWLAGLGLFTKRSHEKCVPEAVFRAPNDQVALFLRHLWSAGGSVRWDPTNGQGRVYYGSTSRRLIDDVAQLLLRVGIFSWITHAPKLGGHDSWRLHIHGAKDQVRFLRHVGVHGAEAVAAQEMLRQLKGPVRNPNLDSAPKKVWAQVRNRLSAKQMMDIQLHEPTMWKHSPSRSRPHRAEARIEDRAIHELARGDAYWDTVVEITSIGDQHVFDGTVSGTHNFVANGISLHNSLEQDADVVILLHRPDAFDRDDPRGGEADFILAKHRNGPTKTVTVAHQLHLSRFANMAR

Genome polyprotein = Genome polyprotein (dengue virus type 2, UniProt P29990); test: flavivirus cap methylation enzyme inhibition – biochemical, confirmation dose response, primary screen (AID 588689)

Insulin-like growth factor 1 receptor, sequence (P08069 31-736 limits assumed): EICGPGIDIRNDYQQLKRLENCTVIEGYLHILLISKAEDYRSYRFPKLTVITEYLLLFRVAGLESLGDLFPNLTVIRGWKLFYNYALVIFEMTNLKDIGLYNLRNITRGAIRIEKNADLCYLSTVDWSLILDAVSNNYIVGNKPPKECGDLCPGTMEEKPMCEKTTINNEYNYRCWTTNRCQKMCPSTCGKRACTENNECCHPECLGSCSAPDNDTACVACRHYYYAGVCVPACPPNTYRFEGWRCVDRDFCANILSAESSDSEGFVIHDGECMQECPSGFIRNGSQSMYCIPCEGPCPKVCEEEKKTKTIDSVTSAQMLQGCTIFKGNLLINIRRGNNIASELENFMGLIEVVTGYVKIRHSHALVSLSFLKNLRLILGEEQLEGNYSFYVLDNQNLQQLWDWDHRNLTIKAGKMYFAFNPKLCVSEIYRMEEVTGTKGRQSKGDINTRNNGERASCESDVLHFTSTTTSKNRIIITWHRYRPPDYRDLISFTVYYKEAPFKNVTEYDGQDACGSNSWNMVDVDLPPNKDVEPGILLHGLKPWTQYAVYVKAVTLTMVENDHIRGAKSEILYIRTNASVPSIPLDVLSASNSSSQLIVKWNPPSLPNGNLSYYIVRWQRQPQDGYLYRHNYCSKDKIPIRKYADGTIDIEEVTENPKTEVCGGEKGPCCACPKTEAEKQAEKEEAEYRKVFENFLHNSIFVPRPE
Insulin-like growth factor 1 receptor, sequence (P08069 741-1367 limits assumed): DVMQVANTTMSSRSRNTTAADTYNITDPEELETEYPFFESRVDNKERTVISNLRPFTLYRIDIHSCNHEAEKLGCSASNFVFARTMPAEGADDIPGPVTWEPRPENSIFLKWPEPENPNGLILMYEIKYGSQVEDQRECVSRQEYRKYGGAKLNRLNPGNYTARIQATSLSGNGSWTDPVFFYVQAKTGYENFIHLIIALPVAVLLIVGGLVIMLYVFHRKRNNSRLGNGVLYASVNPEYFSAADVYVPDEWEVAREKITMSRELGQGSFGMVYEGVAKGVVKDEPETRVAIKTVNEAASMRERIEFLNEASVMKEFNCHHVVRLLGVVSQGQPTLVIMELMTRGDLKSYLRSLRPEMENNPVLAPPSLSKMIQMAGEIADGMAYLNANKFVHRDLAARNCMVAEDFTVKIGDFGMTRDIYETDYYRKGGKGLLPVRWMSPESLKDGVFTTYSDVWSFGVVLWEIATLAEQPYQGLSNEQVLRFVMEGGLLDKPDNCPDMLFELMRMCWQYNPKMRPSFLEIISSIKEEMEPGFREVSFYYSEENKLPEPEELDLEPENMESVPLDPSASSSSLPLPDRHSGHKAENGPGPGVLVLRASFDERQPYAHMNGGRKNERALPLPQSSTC
Lymphokine-activated killer T-cell-originated protein kinase, sequence (Q96KB5 whole entry): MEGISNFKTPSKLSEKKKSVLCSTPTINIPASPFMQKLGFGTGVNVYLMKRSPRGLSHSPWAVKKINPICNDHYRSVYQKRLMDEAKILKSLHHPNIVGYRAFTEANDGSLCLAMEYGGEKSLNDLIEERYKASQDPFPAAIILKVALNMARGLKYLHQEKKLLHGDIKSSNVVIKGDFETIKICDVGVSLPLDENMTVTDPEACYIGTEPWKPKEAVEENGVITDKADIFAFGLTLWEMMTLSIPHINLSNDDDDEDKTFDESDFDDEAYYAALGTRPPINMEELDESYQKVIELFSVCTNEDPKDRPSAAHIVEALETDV
Serine/threonine-protein kinase TAO1, sequence (Q7L7X3 whole entry): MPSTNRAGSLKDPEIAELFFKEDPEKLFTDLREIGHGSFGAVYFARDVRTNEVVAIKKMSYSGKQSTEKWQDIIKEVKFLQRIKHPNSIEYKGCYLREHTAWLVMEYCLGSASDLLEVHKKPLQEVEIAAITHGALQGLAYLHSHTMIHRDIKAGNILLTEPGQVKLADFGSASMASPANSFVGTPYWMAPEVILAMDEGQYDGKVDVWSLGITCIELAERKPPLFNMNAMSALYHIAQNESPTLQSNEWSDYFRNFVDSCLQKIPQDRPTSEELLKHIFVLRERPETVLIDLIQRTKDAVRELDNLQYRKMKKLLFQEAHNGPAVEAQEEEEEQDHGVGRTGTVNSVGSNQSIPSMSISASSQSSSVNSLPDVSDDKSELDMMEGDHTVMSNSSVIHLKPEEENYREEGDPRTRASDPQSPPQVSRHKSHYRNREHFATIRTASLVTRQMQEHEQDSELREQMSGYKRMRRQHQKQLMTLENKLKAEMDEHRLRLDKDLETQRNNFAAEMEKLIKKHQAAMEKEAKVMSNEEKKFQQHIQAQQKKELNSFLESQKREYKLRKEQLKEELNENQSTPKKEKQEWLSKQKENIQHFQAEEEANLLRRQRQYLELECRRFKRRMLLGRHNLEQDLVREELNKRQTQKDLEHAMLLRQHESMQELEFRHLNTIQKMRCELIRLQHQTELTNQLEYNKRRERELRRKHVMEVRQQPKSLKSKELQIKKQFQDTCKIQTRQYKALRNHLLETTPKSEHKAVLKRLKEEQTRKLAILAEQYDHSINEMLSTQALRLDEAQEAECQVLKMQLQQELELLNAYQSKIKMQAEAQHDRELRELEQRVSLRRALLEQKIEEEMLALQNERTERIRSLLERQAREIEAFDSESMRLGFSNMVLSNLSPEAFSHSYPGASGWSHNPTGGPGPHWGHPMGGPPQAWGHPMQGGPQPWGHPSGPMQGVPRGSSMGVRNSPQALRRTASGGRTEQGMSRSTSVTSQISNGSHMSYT
Maternal embryonic leucine zipper kinase, sequence (Q14680 whole entry): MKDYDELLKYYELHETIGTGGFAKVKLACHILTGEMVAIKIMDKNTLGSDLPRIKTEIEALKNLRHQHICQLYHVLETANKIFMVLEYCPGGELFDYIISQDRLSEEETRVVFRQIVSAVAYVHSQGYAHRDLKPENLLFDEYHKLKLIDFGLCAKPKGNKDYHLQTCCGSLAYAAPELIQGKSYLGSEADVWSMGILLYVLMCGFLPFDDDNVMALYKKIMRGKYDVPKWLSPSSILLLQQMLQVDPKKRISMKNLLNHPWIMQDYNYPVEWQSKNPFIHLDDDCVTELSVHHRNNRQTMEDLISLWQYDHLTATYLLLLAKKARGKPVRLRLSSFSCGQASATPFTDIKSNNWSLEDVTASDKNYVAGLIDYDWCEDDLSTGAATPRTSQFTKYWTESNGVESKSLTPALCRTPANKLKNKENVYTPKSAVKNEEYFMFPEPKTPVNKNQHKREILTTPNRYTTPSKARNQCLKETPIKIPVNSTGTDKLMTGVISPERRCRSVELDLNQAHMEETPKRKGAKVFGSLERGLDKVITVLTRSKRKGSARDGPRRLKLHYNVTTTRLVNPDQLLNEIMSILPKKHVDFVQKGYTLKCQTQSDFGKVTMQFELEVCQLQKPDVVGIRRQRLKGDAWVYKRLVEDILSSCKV
STE20-like serine/threonine-protein kinase, sequence (Q9H2G2 whole entry): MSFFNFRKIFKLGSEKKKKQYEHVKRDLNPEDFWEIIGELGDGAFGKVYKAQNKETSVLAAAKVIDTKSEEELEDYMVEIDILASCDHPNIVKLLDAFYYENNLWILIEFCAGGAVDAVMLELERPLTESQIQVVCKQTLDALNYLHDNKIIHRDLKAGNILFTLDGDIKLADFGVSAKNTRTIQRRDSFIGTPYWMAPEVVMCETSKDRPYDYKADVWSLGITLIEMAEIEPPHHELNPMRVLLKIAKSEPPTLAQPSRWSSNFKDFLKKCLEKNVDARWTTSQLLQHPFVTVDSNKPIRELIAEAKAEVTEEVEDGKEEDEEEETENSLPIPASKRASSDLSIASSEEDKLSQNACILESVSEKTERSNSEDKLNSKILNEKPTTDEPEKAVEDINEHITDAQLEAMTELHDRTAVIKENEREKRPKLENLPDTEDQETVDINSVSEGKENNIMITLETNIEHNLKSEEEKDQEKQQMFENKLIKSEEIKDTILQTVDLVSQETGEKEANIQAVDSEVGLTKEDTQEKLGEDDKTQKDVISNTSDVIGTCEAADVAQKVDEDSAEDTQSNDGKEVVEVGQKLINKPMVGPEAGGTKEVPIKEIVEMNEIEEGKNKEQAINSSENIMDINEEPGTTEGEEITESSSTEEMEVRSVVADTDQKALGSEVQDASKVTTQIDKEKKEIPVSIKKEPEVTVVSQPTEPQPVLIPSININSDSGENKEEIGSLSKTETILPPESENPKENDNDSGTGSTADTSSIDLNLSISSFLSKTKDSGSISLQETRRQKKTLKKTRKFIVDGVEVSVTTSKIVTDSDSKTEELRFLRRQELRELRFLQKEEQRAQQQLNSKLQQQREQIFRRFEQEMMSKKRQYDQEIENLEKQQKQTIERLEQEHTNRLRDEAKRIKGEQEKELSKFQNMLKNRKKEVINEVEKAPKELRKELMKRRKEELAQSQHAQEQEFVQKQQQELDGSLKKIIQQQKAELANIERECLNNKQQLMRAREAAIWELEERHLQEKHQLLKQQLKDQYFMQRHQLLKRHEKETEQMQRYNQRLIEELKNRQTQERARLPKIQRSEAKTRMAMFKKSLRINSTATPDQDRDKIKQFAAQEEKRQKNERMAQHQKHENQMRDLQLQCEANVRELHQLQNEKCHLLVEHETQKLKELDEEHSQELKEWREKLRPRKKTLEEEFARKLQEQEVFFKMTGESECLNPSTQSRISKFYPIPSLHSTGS
Cyclin-dependent kinase 5, sequence (Q00535 whole entry): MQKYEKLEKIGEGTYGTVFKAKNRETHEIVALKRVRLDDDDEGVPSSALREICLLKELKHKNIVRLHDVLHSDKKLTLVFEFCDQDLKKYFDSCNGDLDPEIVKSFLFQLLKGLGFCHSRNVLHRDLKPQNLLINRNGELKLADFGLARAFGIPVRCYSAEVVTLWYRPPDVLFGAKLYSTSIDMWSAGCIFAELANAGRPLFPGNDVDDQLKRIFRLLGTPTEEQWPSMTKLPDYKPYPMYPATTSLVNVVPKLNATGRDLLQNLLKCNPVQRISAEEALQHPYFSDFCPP

Cn1cncc1C(OCc1c(-c2ccc(OC(F)(F)F)cc2)cc(C#N)c(=O)n1C)c1ccc(C#N)cc1 (stereo not given)
Ki [1]: > 7.94 µM (inactive)
Ki [2]: > 10 µM (inactive)
Ki [3]: > 10 µM (inactive)
Ki [4]: > 2 µM (inactive)
Ki [5]: 0.316 µM (active)
Ki [6]: > 2 µM (inactive)
Ki (Misshapen-like kinase 1): > 7.94 µM (inactive)
Ki [7]: > 1.58 µM (inactive)
Ki [8]: > 2 µM (inactive)
Ki [9]: > 6.31 µM (inactive)
Ki [10]: > 7.94 µM (inactive)
Ki [11]: > 3.98 µM (inactive)
Ki [12]: 3.98 µM (active)
Ki [13]: 1.58 µM (active)
Ki [14]: > 7.94 µM (inactive)
Ki [15]: > 1.58 µM (inactive)
Ki [16]: > 10 µM (inactive)
Ki [17]: > 7.94 µM (inactive)
Ki [18]: > 10 µM (inactive)
Ki [19]: > 10 µM (inactive)
Ki [20]: > 10 µM (inactive)
Ki [21]: > 10 µM (inactive)

CCc1ccc(S(=O)(=O)/N=C2\C=C(NS(=O)(=O)c3ccccc3)C(=O)c3ccccc32)cc1
CC50 (Vero): > 40 µM (active)
AC50 [22]: 2.55 µM (active)
IC50 (Genome polyprotein): 22.9 µM (active)
